This is an account of results in patent publication US20140329863A1 (priority 2011, published 2014).

The subject of series [1] is PrP^Sc in dividing ScN2a-cl3 cells. Type of series: cell-based, mouse. Further details: Dividing ELISA pEC50 (μM) 1st Expt. / Dividing ELISA pEC50 (μM) 2nd Expt. / Dividing ELISA pEC50 (μM) 3rd Expt. / Dividing ELISA pEC50 (μM) Mean: unit not given here.
Series [2] deals with PrP^Sc in nondividing ScN2a-cl3 cells. Type of series: cell-based, mouse.
Series [3] has as its system N2a-cl3 cells. As to the kind of experiment: cells. The following applies: Mus musculus.
Series [4] has as its system N2a-cl3 cells.
[5] abbreviates: ScN2a-cl3 dividing cells, 1st determination.
[6] abbreviates: ScN2a-cl3 dividing cells, 2nd determination.
Where [7] appears, read: ScN2a-cl3 dividing cells, 3rd determination.
Setting [8] is: ScN2a-cl3 dividing cells, mean of three determinations.
Setting [9] is: read-out: Dividing ELISA EC50 (μM) 1st Expt., ScN2a-cl3 dividing cells, 1st determination.
[10] abbreviates: read-out: Dividing ELISA EC50 (μM) 2nd Expt., ScN2a-cl3 dividing cells, 2nd determination.
The mark [11] stands for this setting: read-out: Dividing ELISA EC50 (μM) 3rd Expt., ScN2a-cl3 dividing cells, 3rd determination.
Where [12] appears, read: read-out: Dividing ELISA EC50 (μM) Mean, ScN2a-cl3 dividing cells, mean of three determinations.
The mark [13] stands for this setting: read-out: Non-Dividing ELISA EC50 (μM) Mean (n = 3), ScN2a-c13 non-dividing cells, mean n = 3.
Setting [14] is: N2a-cl3, read-out: Dividing Calcein EC50 (μM) Mean (n = 3).
Setting [15] is: Table 29, 2-AMT analogs tested for potency, usually n = 3 or more.

One may read the melting point as the temperature of the solid-liquid transition.

Each structure is given as a SMILES string. Read-outs that look alike come from different tables or passages of the source. Marks after values point to notes of the source that are not given here.

`c1ccc(-c2cc(-c3csc(Nc4ccncc4)n3)on2)cc1` [compound 45, [4-(3-Phenylisoxazol-5-yl)-thiazol-2-yl]-pyridin-4-yl-amine] showed a melting point of 269 to 270 °C. In series [1] (setting [5]), the “Dividing ELISA pEC50 (μM) 1st Expt.” value is reported as 5.50. The “Dividing ELISA pEC50 (μM) 2nd Expt.” value in series [1] (setting [6]) is reported as 5.49. Further, the “Dividing ELISA pEC50 (μM) 3rd Expt.” value in series [1] (setting [7]) is reported as 5.17. Moreover, the “Dividing ELISA pEC50 (μM) Mean” value in series [1] (setting [8]) is 5.38. Also, the EC50 in series [1] (setting [9]) was determined as 3.16 µM. The EC50 in series [1] (setting [10]) is 3.25 µM. The EC50 in series [1] (setting [11]) worked out at 6.83 µM. Besides, the EC50 in series [1] (setting [12]) turned out to be 4.42 µM. For the same compound, the EC50 in series [2] (setting [13]) is above 32 µM. Besides, the EC50 with N2a-cl3 cells [3] (setting [14]) was above 32 µM.

In turn, `Cc1ccc(Nc2nc(-c3ccccn3)cs2)nc1` [compound 24, (5-Methylpyridin-2-yl)-(4-pyridin-2-yl-thiazol-2-yl)-amine] displayed a melting point of 184 to 190 °C. Further, the EC50 in series [1] (setting [9]) came out at 1.62 µM. In addition, in series [1] (setting [10]), the EC50 was 0.507 µM. In series [1] (setting [11]), the EC50 was 0.449 µM. In addition, in series [1] (setting [12]), the EC50 turned out to be 0.86 µM. For the same compound, the EC50 in series [2] (setting [13]) was above 32 µM. Moreover, the EC50 in the series on N2a-cl3 cells [3] (setting [14]) is 0.389 µM.

Consider `COc1ccc(-c2csc(Nc3cc(C)ccn3)n2)cc1OC` [compound 16, [4-(3,4-dimethoxyphenyl)-thiazol-2-yl]-(4-methylpyridin-2-yl)-amine], for which the melting point lay within 211 to 213 °C. For the same compound, in series [1] (setting [5]), the “Dividing ELISA pEC50 (μM) 1st Expt.” value was determined as 5.95. In series [1] (setting [6]), the “Dividing ELISA pEC50 (μM) 2nd Expt.” value is recorded as 6.13. Also, the “Dividing ELISA pEC50 (μM) 3rd Expt.” value in series [1] (setting [7]) was 5.95. In series [1] (setting [8]), the “Dividing ELISA pEC50 (μM) Mean” value stood at 6.01. Besides, in series [1] (setting [9]), the EC50 came out at 1.13 µM. Moreover, the EC50 in series [1] (setting [10]) is 0.736 µM. For the same compound, in series [1] (setting [11]), the EC50 was found to be 1.13 µM. Moreover, in series [1] (setting [12]), the EC50 turned out to be 1 µM. The EC50 in series [2] (setting [13]) was above 32 µM. In the series with N2a-cl3 cells [3] (setting [14]), the EC50 is above 32 µM.

The compound `COc1ccc(-c2csc(NC(=O)c3cc4ccccc4cn3)n2)cc1OC` [compound 47, Isoquinoline-3-carboxylic acid [4-(3,4-dimethoxyphenyl)-thiazol-2-yl]amide] displayed a melting point of 228 to 230 °C. In addition, the “Dividing ELISA pEC50 (μM) 1st Expt.” value in series [1] (setting [5]) came to 5.01. In addition, the “Dividing ELISA pEC50 (μM) 2nd Expt.” value in series [1] (setting [6]) is 5.41. For the same compound, in series [1] (setting [7]), the “Dividing ELISA pEC50 (μM) 3rd Expt.” value is recorded as 4.97. Also, in series [1] (setting [8]), the “Dividing ELISA pEC50 (μM) Mean” value is on record as 5.13. Also, the EC50 in series [1] (setting [9]) is 9.81 µM. Moreover, the EC50 in series [1] (setting [10]) stood at 3.93 µM. Also, the EC50 in series [1] (setting [11]) came to 10.8 µM. Besides, the EC50 in series [1] (setting [12]) stood at 8.18 µM. In addition, in series [2] (setting [13]), the EC50 is above 10 µM. In addition, in the series on N2a-cl3 cells [3] (setting [14]), the EC50 was above 10 µM.

On to `COc1ccc(NC(=O)c2csc(Nc3ccc(C)cn3)n2)cc1OC` [compound 46, 2-(5-Methylpyridin-2-ylamino)-thiazole-4-carboxylic acid (3,4-dimethoxyphenyl)-amide], for which the melting point is 212 to 214 °C. For the same compound, the “Dividing ELISA pEC50 (μM) 1st Expt.” value in series [1] (setting [5]) was 5.50. The “Dividing ELISA pEC50 (μM) 2nd Expt.” value in series [1] (setting [6]) turned out to be 5.72. The “Dividing ELISA pEC50 (μM) 3rd Expt.” value in series [1] (setting [7]) is 5.66. Moreover, in series [1] (setting [8]), the “Dividing ELISA pEC50 (μM) Mean” value is listed as 5.62. The EC50 in series [1] (setting [9]) was 3.19 µM. In addition, the EC50 in series [1] (setting [10]) was found to be 1.93 µM. In series [1] (setting [11]), the EC50 came to 2.21 µM. Further, the EC50 in series [1] (setting [12]) came to 2.44 µM. In series [2] (setting [13]), the EC50 is above 32 µM. Besides, in the series on N2a-cl3 cells [3] (setting [14]), the EC50 is above 32 µM.

`Cc1ccnc(Nc2nc(-c3ccc4c(c3)OCCO4)cs2)c1` [IND57, [4-(2,3-Dihydro-benzo[1,4]dioxin-6-yl)-thiazol-2-yl]-(4-methyl-pyridin-2-yl)-amine] returned a melting point of 230 to 240 °C. Further, the EC50 in series [1] (AMT analogs tested for potency) is above 10 µM. Further, in series [1] (setting [15]), the EC50 is above 10 µM.

In the case of `COc1ccc(-c2csc(Nc3ccc(C)cn3)n2)c(OC)c1` [IND74, [4-(2,4-Dimethoxy-phenyl)-thiazol-2-yl]-(5-methyl-pyridin-2-yl)-amine], the melting point was in the range of 157 to 158 °C. Besides, the EC50 in series [1] (AMT analogs tested for potency) came out at 3.13 µM. The same compound came in with an EC50 in series [1] (setting [15]) of 3.13 µM.

`Cc1ccc(Nc2nc(-c3cccc(C#N)c3)cs2)nc1` [IND38, 3-[2-(5-Methyl-pyridin-2-ylamino)-thiazol-4-yl]-benzonitrile] returned a melting point of 268 to 272 °C. In series [1] (AMT analogs tested for potency), this compound displayed an EC50 of 2.29 µM. The same compound came in with an EC50 in series [1] (setting [15]) of 2.29 µM.

For `Cc1ccc(Nc2nc(-c3ccc(OC(F)(F)F)cc3)cs2)nc1` [IND26, (5-Methyl-pyridin-2-yl)-[4-(4-trifluoromethoxy-phenyl)-thiazol-2-yl]-amine], the melting point was 205 to 207 °C. In series [1] (AMT analogs tested for potency), the EC50 is above 10 µM. Moreover, in series [1] (setting [15]), the EC50 was above 10 µM.

`COc1ccc(Nc2nc(-c3ccncc3)cs2)nc1` [IND119, (5-Methoxy-pyridin-2-yl)-(4-pyridin-4-yl-thiazol-2-yl)-amine] had a melting point of 213 to 214 °C. In series [1] (AMT analogs tested for potency), this compound returned an EC50 of 1.32 µM.

For the compound `COc1ccc(Nc2nc(-c3cc4ccccc4o3)cs2)nc1` [IND121, (4-Benzofuran-2-yl-thiazol-2-yl)-(5-methoxy-pyridin-2-yl)-amine], the melting point is 185 to 186 °C. Further, the EC50 in series [1] (AMT analogs tested for potency) is 1.74 µM.

Regarding `COc1ccc(-c2csc(Nc3ccc(C)cn3)n2)cc1OC` [compound 14, [4-(3,4-dimethoxyphenyl)-thiazol-2-yl]-(5-methylpyridin-2-yl)-amine], the EC50 is 0.974 µM in series [1] (setting [9]); 0.577 µM in series [1] (setting [10]); 0.815 µM in series [1] (setting [11]); 0.789 µM in series [1] (setting [12]); above 32 µM in series [2] (setting [13]); above 32 µM with N2a-cl3 cells [3] (setting [14]).

For the compound `Cc1ccnc(Nc2nc(-c3ccc(OC(F)(F)F)cc3)cs2)c1` [IND78, (4-Methyl-pyridin-2-yl)-[4-(4-trifluoromethoxy-phenyl)-thiazol-2-yl]-amine], the melting point lay in the range of 275 to 282 °C. Further, the EC50 in series [1] (AMT analogs tested for potency) is above 32 µM. The compound further displayed an EC50 in series [1] (setting [15]) above 32 µM.

For `COc1ccc(Nc2nc(-c3ccc(-c4ccccc4)cc3)cs2)nc1` [IND122, (4-Biphenyl-4-yl-thiazol-2-yl)-(5-methoxy-pyridin-2-yl)-amine], the melting point lay in the range of 212 to 213 °C. Also, the EC50 in series [1] (AMT analogs tested for potency) turned out to be 0.432 µM.

`Cc1ccnc(Nc2nc(-c3cc(-c4ccccc4)no3)cs2)c1` [compound 43, (4-Methylpyridin-2-yl)-[4-(3-phenylisoxazol-5-yl)-thiazol-2-yl]-amine]: in series [1] (setting [5]), the “Dividing ELISA pEC50 (μM) 1st Expt.” value was found to be 5.98. The “Dividing ELISA pEC50 (μM) 2nd Expt.” value in series [1] (setting [6]) came to 5.96. For the same compound, the “Dividing ELISA pEC50 (μM) 3rd Expt.” value in series [1] (setting [7]) is 5.78. In addition, in series [1] (setting [8]), the “Dividing ELISA pEC50 (μM) Mean” value is recorded as 5.90. Further, the EC50 is 1.05 µM in series [1] (setting [9]); 1.1 µM in series [1] (setting [10]); 1.67 µM in series [1] (setting [11]); 1.28 µM in series [1] (setting [12]); above 32 µM in series [2] (setting [13]); above 32 µM with N2a-cl3 cells [3] (setting [14]).

`Cc1ccc2[nH]c3c(c2c1)CCCC3NCCCN(C)C` (centres unmarked) [IND-23308]: the “Inhibition of Baseline PrP^5c (%) Dividing Cells ELISA” value in series [1] (SPC assay, dividing cells) turned out to be 88%. Further, the EC50 is 1.58 µM in series [1] (read-out: EC50, PrP^Sc ELISA in dividing ScN2a-c13 cells); 7.5 µM in series [2] (read-out: EC50, PrP^Sc ELISA in stationary-phase (nondividing) cells); above 10 µM in the series on N2a-cl3 cells [3] (N2a-cl3, read-out: potency in cell viability, dividing cells); above 10 µM with N2a-cl3 cells [3] (N2a-cl3, read-out: potency in cell viability, stationary-phase cells). The same compound had an HTS % inhibition in series [2] (HTS, nondividing cells) of 70%. Further, the “Inhibition of Baseline PrP^5c (%) Non-dividing Cells ELISA” value in series [2] (SPC assay, nondividing cells) is reported as 94^d %. In addition, the SPC % inhibition in series [2] (SPC assays, nondividing cells) is on record as 94%. In addition, in the series on N2a-cl3 cells [4], the “Dividing Cells V (cell viability percentages)” value was found to be 30%. The “Effect on cell viability (EC50)” value with N2a-cl3 cells [4] was “no effect on cell viability”. Further, the “Non-dividing Cells V (cell viability percentages)” value in the series on N2a-cl3 cells [4] is reported as 12%.

`COc1ccnc(Nc2nc(-c3ccncc3)cs2)c1` [IND111, (4-Methoxy-pyridin-2-yl)-(4-pyridin-4-yl-thiazol-2-yl)-amine] yielded a melting point of 190 to 192 °C. In series [1] (AMT analogs tested for potency), this compound came in with an EC50 of 0.605 µM.
